In ChEMBL document CHEMBL1201862, “PubChem BioAssay data set” (2004):
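Each compound was tested at five concentrations against cells in 96-well plates for 48 hours. Abbreviation: GI50, concentration required for 50% inhibition of growth.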 The source made the active and inactive calls. No stated cut-off is given here; in the data, active = GI50 up to about 1.1 µM and inactive = higher.

Columns and labels:
Experiment in all cases: NCI tumour cell line growth inhibition, 48 h
[1] = test system: Hs-578T
[2] = test system: SK-MEL-5
[3] = test system: SK-MEL-2
[4] = test system: SK-MEL-28
[5] = test system: CAKI-1
[6] = test system: OVCAR-3
[7] = test system: HT-29
[8] = test system: LOX IMVI
[9] = test system: ACHN
[10] = test system: SNB-75
[11] = test system: HOP-62
[12] = test system: CCRF-CEM
[13] = test system: K562
[14] = test system: M14
[15] = test system: TK-10
[16] = test system: UO-31
[17] = test system: HCT-116
[18] = test system: 786-0
[19] = test system: A549

Row | Structure (SMILES) | GI50 [1] | GI50 [2] | GI50 [3] | GI50 [4] | GI50 [5] | GI50 [6] | GI50 [7] | GI50 [8] | GI50 [9] | GI50 [10] | GI50 [11] | GI50 [12] | GI50 [13] | GI50 [14] | GI50 [15] | GI50 [16] | GI50 [17] | GI50 [18] | GI50 [19]
1 | Cn1c(=O)c2c(O)cc(N)nc2n(C)c1=O | > 100 µM (inactive) | > 100 µM (inactive) | > 100 µM (inactive) | > 100 µM (inactive) | 28.9 µM (inactive) | > 100 µM (inactive) | > 100 µM (inactive) | > 100 µM (inactive) | > 100 µM (inactive) | > 100 µM (inactive) | > 100 µM (inactive) | > 100 µM (inactive) | > 100 µM (inactive) | > 100 µM (inactive) | > 100 µM (inactive) | > 100 µM (inactive) | > 100 µM (inactive) | > 100 µM (inactive) | > 100 µM (inactive)
2 | CN(C)S(=O)(=O)c1ccc(Nc2ccc(O)c3c2C(=O)c2c([N+](=O)[O-])ccc(O)c2C3=O)cc1 | > 100 µM (inactive) | 72.3 µM (inactive) | > 100 µM (inactive) | > 100 µM (inactive) | > 100 µM (inactive) | > 100 µM (inactive) | > 100 µM (inactive) | 64.7 µM (inactive) | 55 µM (inactive) | > 100 µM (inactive) | > 100 µM (inactive) | 4.39 µM (inactive) | > 100 µM (inactive) | > 100 µM (inactive) | 56.4 µM (inactive) | > 100 µM (inactive) | 72.9 µM (inactive) | > 100 µM (inactive) | > 100 µM (inactive)
3 | Oc1ccc(Br)cc1/C=N/c1cccc(C(F)(F)F)c1 | 28 µM (inactive) | 28.3 µM (inactive) | 19.5 µM (inactive) | 36.1 µM (inactive) | 66.7 µM (inactive) | 37 µM (inactive) | 37.8 µM (inactive) | 18.3 µM (inactive) | > 100 µM (inactive) | 42.6 µM (inactive) | 49.5 µM (inactive) | 3.37 µM (inactive) | 12.4 µM (inactive) | 17.5 µM (inactive) | > 100 µM (inactive) | 35.6 µM (inactive) | 9.12 µM (inactive) | 30.4 µM (inactive) | > 100 µM (inactive)
4 | C=C1C(=O)O[C@H]2[C@H]3O[C@@H](C[C@@H]12)[C@@]1(C)CC[C@H](O1)C(C)=CCC[C@H]3C | 2.65 µM (inactive) | 1.49 µM (inactive) | 1.93 µM (inactive) | 1.82 µM (inactive) | 1.28 µM (inactive) | 1.37 µM (inactive) | 1.34 µM (inactive) | 1.52 µM (inactive) | 1.55 µM (inactive) | 1.73 µM (inactive) | 6.27 µM (inactive) | 0.324 µM (active) | 1.08 µM (active) | 1.65 µM (inactive) | 1.58 µM (inactive) | 1.46 µM (inactive) | 1.45 µM (inactive) | 1.31 µM (inactive) | 2.25 µM (inactive)
5 | COc1ccccc1C1ON=C(c2ccc([N+](=O)[O-])cc2)N1C12CC3CC(CC(C3)C1)C2 (stereo not given) | 37.9 µM (inactive) | 59.6 µM (inactive) | > 100 µM (inactive) | > 100 µM (inactive) | > 100 µM (inactive) | > 100 µM (inactive) | 45.4 µM (inactive) | > 100 µM (inactive) | > 100 µM (inactive) | 42.1 µM (inactive) | 20.4 µM (inactive) | 28.7 µM (inactive) | 36.7 µM (inactive) | 84.3 µM (inactive) | > 100 µM (inactive) | > 100 µM (inactive) | 47.5 µM (inactive) | > 100 µM (inactive) | 94 µM (inactive)
6 | CC12CCC(C(Nc3ccccn3)C1=O)C2(C)C (stereo not given) | > 100 µM (inactive) | > 100 µM (inactive) | > 100 µM (inactive) | > 100 µM (inactive) | > 100 µM (inactive) | > 100 µM (inactive) | > 100 µM (inactive) | > 100 µM (inactive) | > 100 µM (inactive) | 63 µM (inactive) | > 100 µM (inactive) | > 100 µM (inactive) | > 100 µM (inactive) | > 100 µM (inactive) | > 100 µM (inactive) | > 100 µM (inactive) | > 100 µM (inactive) | > 100 µM (inactive) | > 100 µM (inactive)
7 | CCOC(=O)c1c(NS(=O)(=O)c2ccc(Br)cc2)sc2c1CCCC2 | 4.43 µM (inactive) | 7.29 µM (inactive) | 5.85 µM (inactive) | 15.8 µM (inactive) | 10.2 µM (inactive) | 3.93 µM (inactive) | 5.3 µM (inactive) | 13.6 µM (inactive) | 3.93 µM (inactive) | 4.11 µM (inactive) | 5.9 µM (inactive) | 5.51 µM (inactive) | 5.79 µM (inactive) | 4.8 µM (inactive) | 10.8 µM (inactive) | 3.51 µM (inactive) | 7.52 µM (inactive) | 9.31 µM (inactive) | 7.78 µM (inactive)
8 | CC(C)(C(=O)NN)c1ccccc1 | > 100 µM (inactive) | > 100 µM (inactive) | 21.6 µM (inactive) | > 100 µM (inactive) | > 100 µM (inactive) | > 100 µM (inactive) | > 100 µM (inactive) | 7.91 µM (inactive) | > 100 µM (inactive) | > 100 µM (inactive) | > 100 µM (inactive) | > 100 µM (inactive) | > 100 µM (inactive) | > 100 µM (inactive) | > 100 µM (inactive) | 76.6 µM (inactive) | > 100 µM (inactive) | > 100 µM (inactive) | > 100 µM (inactive)
9 | Cc1cc(S(=O)(=O)Nc2nc(N)nc(N3N=CCC3C)n2)c(SCC(=O)O)cc1Cl (stereo not given) | > 10 µM (inactive) | > 10 µM (inactive) | > 10 µM (inactive) | > 10 µM (inactive) | > 10 µM (inactive) | > 10 µM (inactive) | > 10 µM (inactive) | > 10 µM (inactive) | > 10 µM (inactive) | > 10 µM (inactive) | > 10 µM (inactive) | > 10 µM (inactive) | > 10 µM (inactive) | > 10 µM (inactive) | > 10 µM (inactive) | 0.001 µM (active) | > 10 µM (inactive) | > 10 µM (inactive) | > 10 µM (inactive)
10 | O=C1CC(=O)c2c(Cl)sc(Cl)c21 | 33.8 µM (inactive) | > 100 µM (inactive) | > 100 µM (inactive) | 53.8 µM (inactive) | > 100 µM (inactive) | 86.5 µM (inactive) | > 100 µM (inactive) | 52.8 µM (inactive) | > 100 µM (inactive) | > 100 µM (inactive) | > 100 µM (inactive) | 37.2 µM (inactive) | 40.9 µM (inactive) | > 100 µM (inactive) | > 100 µM (inactive) | > 100 µM (inactive) | > 100 µM (inactive) | > 100 µM (inactive) | 87.1 µM (inactive)
11 | COC(=O)/C(=N\NC(N)=O)C(C(=O)C(=O)Nc1ccccc1OC)c1nc2ccc([N+](=O)[O-])cc2nc1O (stereo not given) | 82.2 µM (inactive) | > 100 µM (inactive) | > 100 µM (inactive) | > 100 µM (inactive) | > 100 µM (inactive) | > 100 µM (inactive) | > 100 µM (inactive) | > 100 µM (inactive) | > 100 µM (inactive) | > 100 µM (inactive) | > 100 µM (inactive) | > 100 µM (inactive) | 30 µM (inactive) | > 100 µM (inactive) | > 100 µM (inactive) | > 100 µM (inactive) | > 100 µM (inactive) | > 100 µM (inactive) | > 100 µM (inactive)
12 | N#Cc1nc(C(F)(F)F)oc1N | > 100 µM (inactive) | > 100 µM (inactive) | > 100 µM (inactive) | > 100 µM (inactive) | > 100 µM (inactive) | > 100 µM (inactive) | > 100 µM (inactive) | > 100 µM (inactive) | > 100 µM (inactive) | > 100 µM (inactive) | > 100 µM (inactive) | 95.3 µM (inactive) | > 100 µM (inactive) | > 100 µM (inactive) | > 100 µM (inactive) | > 100 µM (inactive) | > 100 µM (inactive) | > 100 µM (inactive) | > 100 µM (inactive)
13 | CN1CSC(=S)N(c2cccc(C(F)(F)F)c2)C1 | 28.9 µM (inactive) | 17.1 µM (inactive) | 21.3 µM (inactive) | 23.1 µM (inactive) | 26.4 µM (inactive) | 30 µM (inactive) | 22.5 µM (inactive) | 20.2 µM (inactive) | 19 µM (inactive) | 42.2 µM (inactive) | 26.9 µM (inactive) | 30.4 µM (inactive) | 24 µM (inactive) | 17.9 µM (inactive) | 28.6 µM (inactive) | 26.4 µM (inactive) | 34 µM (inactive) | 26.2 µM (inactive) | 24.3 µM (inactive)
14 | CCOC(=O)c1c(-c2ccccc2)[nH]c2ccc(Cl)cc2c1=O | 35.4 µM (inactive) | 29.8 µM (inactive) | 34 µM (inactive) | 69.7 µM (inactive) | 37.9 µM (inactive) | 19.5 µM (inactive) | 27.9 µM (inactive) | 37.4 µM (inactive) | 27.6 µM (inactive) | 45.8 µM (inactive) | 65.9 µM (inactive) | 26.4 µM (inactive) | 28.8 µM (inactive) | 49.9 µM (inactive) | 42.8 µM (inactive) | 29.4 µM (inactive) | 27.2 µM (inactive) | 38.7 µM (inactive) | 36.6 µM (inactive)
15 | Nc1nc(O)nc2c1ncn2C1OC(CO)C(O)C1O (stereo not given) | > 100 µM (inactive) | > 100 µM (inactive) | 64.4 µM (inactive) | > 100 µM (inactive) | 54 µM (inactive) | 52.7 µM (inactive) | > 100 µM (inactive) | 38.8 µM (inactive) | 78.9 µM (inactive) | 6.18 µM (inactive) | > 100 µM (inactive) | 33 µM (inactive) | 44.2 µM (inactive) | 39.9 µM (inactive) | 38.5 µM (inactive) | 49.9 µM (inactive) | 45 µM (inactive) | 97.5 µM (inactive) | > 100 µM (inactive)
